Where “and” joins values, the source holds several entries; their conditions need not be identical. Identical values can stand only once.
Experiment: molar heat capacity at constant pressure
Conditions: 101.33 kPa, Crystal

OC[C@@H](O)[C@H](O)[C@@H](O)CO [xylitol]
Conditions	molar heat capacity at constant pressure
1 K, relaxation calorimetry	0.0008271 J/K/mol
1.922 K, relaxation calorimetry	0.005594 J/K/mol
2 K, relaxation calorimetry	0.006331 J/K/mol
2.139 K, relaxation calorimetry	0.007737 J/K/mol
2.374 K, relaxation calorimetry	0.01068 J/K/mol
2.635 K, relaxation calorimetry	0.0145 J/K/mol
2.93 K, relaxation calorimetry	0.02028 J/K/mol
3 K, relaxation calorimetry	0.02164 J/K/mol
3.25 K, relaxation calorimetry	0.02792 J/K/mol
3.603 K, relaxation calorimetry	0.03808 J/K/mol
4 K, relaxation calorimetry	0.05265 J/K/mol and 0.05269 J/K/mol
4.437 K, relaxation calorimetry	0.07193 J/K/mol
4.924 K, relaxation calorimetry	0.1019 J/K/mol
5 K, relaxation calorimetry	0.1065 J/K/mol
5.466 K, relaxation calorimetry	0.1404 J/K/mol
6 K, relaxation calorimetry	0.191 J/K/mol
6.063 K, relaxation calorimetry	0.1974 J/K/mol
6.726 K, relaxation calorimetry	0.2771 J/K/mol
7 K, relaxation calorimetry	0.3152 J/K/mol
7.46 K, relaxation calorimetry	0.3882 J/K/mol
8 K, relaxation calorimetry	0.4898 J/K/mol
8.276 K, relaxation calorimetry	0.5472 J/K/mol
9 K, relaxation calorimetry	0.7186 J/K/mol
9.181 K, relaxation calorimetry	0.7649 J/K/mol
10 K, relaxation calorimetry	1.004 J/K/mol
10.2 K, relaxation calorimetry	1.063 J/K/mol
11.29 K, relaxation calorimetry	1.456 J/K/mol
12.52 K, relaxation calorimetry	1.978 J/K/mol
13.9 K, relaxation calorimetry	2.652 J/K/mol
15 K, relaxation calorimetry	3.243 J/K/mol
15.43 K, relaxation calorimetry	3.486 J/K/mol
17.11 K, relaxation calorimetry	4.536 J/K/mol
19 K, relaxation calorimetry	5.817 J/K/mol
20 K, relaxation calorimetry	6.537 J/K/mol
21.08 K, relaxation calorimetry	7.334 J/K/mol
23.4 K, relaxation calorimetry	9.137 J/K/mol
25 K, relaxation calorimetry	10.45 J/K/mol
25.98 K, relaxation calorimetry	11.24 J/K/mol
28.85 K, relaxation calorimetry	13.71 J/K/mol
30 K, relaxation calorimetry	14.71 J/K/mol
32.02 K, relaxation calorimetry	16.53 J/K/mol
35 K, relaxation calorimetry	19.23 J/K/mol
35.54 K, relaxation calorimetry	19.78 J/K/mol
39.45 K, relaxation calorimetry	23.43 J/K/mol
40 K, relaxation calorimetry	23.95 J/K/mol
43.77 K, relaxation calorimetry	27.59 J/K/mol
45 K, relaxation calorimetry	28.76 J/K/mol
48.58 K, relaxation calorimetry	32.08 J/K/mol
50 K, relaxation calorimetry	33.53 J/K/mol
53.91 K, relaxation calorimetry	37.13 J/K/mol
55 K, relaxation calorimetry	38.17 J/K/mol
59.82 K, relaxation calorimetry	42.74 J/K/mol
60 K, relaxation calorimetry	42.76 J/K/mol
65 K, relaxation calorimetry	47.51 J/K/mol
66.39 K, relaxation calorimetry	48.78 J/K/mol
70 K, relaxation calorimetry	52.03 J/K/mol
73.7 K, relaxation calorimetry	55.27 J/K/mol
75 K, relaxation calorimetry	56.38 J/K/mol
80 K, relaxation calorimetry	60.61 J/K/mol
81.8 K, relaxation calorimetry	62.47 J/K/mol
85 K, relaxation calorimetry	64.74 J/K/mol
90 K, relaxation calorimetry	68.78 J/K/mol
90.79 K, relaxation calorimetry	69.45 J/K/mol
95 K, relaxation calorimetry	72.72 J/K/mol
100 K, relaxation calorimetry	76.57 J/K/mol
100.73 K, relaxation calorimetry	76.61 J/K/mol
110 K, relaxation calorimetry	84.01 J/K/mol
110.86 K, relaxation calorimetry	84.59 J/K/mol
120 K, relaxation calorimetry	91.15 J/K/mol
120.92 K, relaxation calorimetry	91.94 J/K/mol
130 K, relaxation calorimetry	98.03 J/K/mol
130.99 K, relaxation calorimetry	98.86 J/K/mol
140 K, relaxation calorimetry	104.68 J/K/mol
141.06 K, relaxation calorimetry	105.29 J/K/mol
150 K, relaxation calorimetry	111.17 J/K/mol
151.18 K, relaxation calorimetry	112.01 J/K/mol
160 K, relaxation calorimetry	117.52 J/K/mol
161.27 K, relaxation calorimetry	118.23 J/K/mol
170 K, relaxation calorimetry	123.79 J/K/mol
171.37 K, relaxation calorimetry	124.62 J/K/mol
180 K, relaxation calorimetry	130 J/K/mol
181.44 K, relaxation calorimetry	131.13 J/K/mol
188.15 K, Small sample (50 mg) DSC	129.73 J/K/mol
189.15 K, Small sample (50 mg) DSC	130.13 J/K/mol
190 K, relaxation calorimetry	136.19 J/K/mol
190.15 K, Small sample (50 mg) DSC	131.3 J/K/mol
191.15 K, Small sample (50 mg) DSC	132.22 J/K/mol
191.51 K, relaxation calorimetry	137.32 J/K/mol
192.15 K, Small sample (50 mg) DSC	132.97 J/K/mol
193.15 K, Small sample (50 mg) DSC	133.63 J/K/mol
194.15 K, Small sample (50 mg) DSC	134.85 J/K/mol
195.15 K, Small sample (50 mg) DSC	136.05 J/K/mol
196.15 K, Small sample (50 mg) DSC	137.13 J/K/mol
197.15 K, Small sample (50 mg) DSC	137.99 J/K/mol
198.15 K, Small sample (50 mg) DSC	138.87 J/K/mol
199.15 K, Small sample (50 mg) DSC	139.73 J/K/mol
200 K, relaxation calorimetry	142.38 J/K/mol
200.15 K, Small sample (50 mg) DSC	140.65 J/K/mol
201.15 K, Small sample (50 mg) DSC	141.4 J/K/mol
201.63 K, relaxation calorimetry	143.25 J/K/mol
202.15 K, Small sample (50 mg) DSC	142.18 J/K/mol
203.15 K, Small sample (50 mg) DSC	143.08 J/K/mol
204.15 K, Small sample (50 mg) DSC	143.76 J/K/mol
205.15 K, Small sample (50 mg) DSC	144.29 J/K/mol
206.15 K, Small sample (50 mg) DSC	145.08 J/K/mol
207.15 K, Small sample (50 mg) DSC	145.87 J/K/mol
208.15 K, Small sample (50 mg) DSC	146.4 J/K/mol
209.15 K, Small sample (50 mg) DSC	147.11 J/K/mol
210 K, relaxation calorimetry	148.6 J/K/mol
210.15 K, Small sample (50 mg) DSC	147.83 J/K/mol
211.15 K, Small sample (50 mg) DSC	148.54 J/K/mol
211.72 K, relaxation calorimetry	149.26 J/K/mol
212.15 K, Small sample (50 mg) DSC	149.22 J/K/mol
213.15 K, Small sample (50 mg) DSC	149.76 J/K/mol
214.15 K, Small sample (50 mg) DSC	150.56 J/K/mol
215.15 K, Small sample (50 mg) DSC	151.28 J/K/mol
216.15 K, Small sample (50 mg) DSC	152.02 J/K/mol
217.15 K, Small sample (50 mg) DSC	152.63 J/K/mol
218.15 K, Small sample (50 mg) DSC	153.29 J/K/mol
219.15 K, Small sample (50 mg) DSC	154.13 J/K/mol
220 K, relaxation calorimetry	154.86 J/K/mol
220.15 K, Small sample (50 mg) DSC	154.86 J/K/mol
221.15 K, Small sample (50 mg) DSC	155.65 J/K/mol
221.81 K, relaxation calorimetry	156.12 J/K/mol
222.15 K, Small sample (50 mg) DSC	156.3 J/K/mol
223.15 K, Small sample (50 mg) DSC	157.01 J/K/mol
224.15 K, Small sample (50 mg) DSC	157.66 J/K/mol
225.15 K, Small sample (50 mg) DSC	158.24 J/K/mol
226.15 K, Small sample (50 mg) DSC	158.84 J/K/mol
227.15 K, Small sample (50 mg) DSC	159.41 J/K/mol
228.15 K, Small sample (50 mg) DSC	160.16 J/K/mol
229.15 K, Small sample (50 mg) DSC	160.62 J/K/mol
230 K, relaxation calorimetry	161.19 J/K/mol
230.15 K, Small sample (50 mg) DSC	161.2 J/K/mol
231.15 K, Small sample (50 mg) DSC	162.12 J/K/mol
231.89 K, relaxation calorimetry	162.24 J/K/mol
232.15 K, Small sample (50 mg) DSC	162.73 J/K/mol
233.15 K, Small sample (50 mg) DSC	163.22 J/K/mol
234.15 K, Small sample (50 mg) DSC	164.01 J/K/mol
235.15 K, Small sample (50 mg) DSC	164.81 J/K/mol
236.15 K, Small sample (50 mg) DSC	165.55 J/K/mol
237.15 K, Small sample (50 mg) DSC	166.14 J/K/mol
238.15 K, Small sample (50 mg) DSC	166.88 J/K/mol
239.15 K, Small sample (50 mg) DSC	167.65 J/K/mol
240 K, relaxation calorimetry	167.6 J/K/mol
240.15 K, Small sample (50 mg) DSC	168.23 J/K/mol
241.15 K, Small sample (50 mg) DSC	168.92 J/K/mol
241.89 K, relaxation calorimetry	168.66 J/K/mol
242.15 K, Small sample (50 mg) DSC	169.52 J/K/mol
243.15 K, Small sample (50 mg) DSC	170.22 J/K/mol
244.15 K, Small sample (50 mg) DSC	170.79 J/K/mol
245.15 K, Small sample (50 mg) DSC	171.35 J/K/mol
246.15 K, Small sample (50 mg) DSC	172.07 J/K/mol
247.15 K, Small sample (50 mg) DSC	172.62 J/K/mol
248.15 K, Small sample (50 mg) DSC	173.32 J/K/mol
249.15 K, Small sample (50 mg) DSC	173.97 J/K/mol
250 K, relaxation calorimetry	174.1 J/K/mol
250.15 K, Small sample (50 mg) DSC	174.75 J/K/mol
251.15 K, Small sample (50 mg) DSC	175.38 J/K/mol
252.05 K, relaxation calorimetry	175.66 J/K/mol
252.15 K, Small sample (50 mg) DSC	176.09 J/K/mol
253.15 K, Small sample (50 mg) DSC	176.77 J/K/mol
254.15 K, Small sample (50 mg) DSC	177.72 J/K/mol
255.15 K, Small sample (50 mg) DSC	178.41 J/K/mol
256.15 K, Small sample (50 mg) DSC	179.25 J/K/mol
257.15 K, Small sample (50 mg) DSC	180.21 J/K/mol
258.15 K, Small sample (50 mg) DSC	180.68 J/K/mol
259.15 K, Small sample (50 mg) DSC	181.27 J/K/mol
260 K, relaxation calorimetry	180.7 J/K/mol
260.15 K, Small sample (50 mg) DSC	182.15 J/K/mol
